Assay results reported in patent US7732398B2, “Medicinal uses of mu-opioid receptor agonists” (Cornell Research Foundation, Inc., priority 2000, dated 2010).
Where “and” joins values, the source holds several entries; their conditions need not be identical. Equal entries are not always repeated. Marks after values point to notes of the source that are not given here.

Experiments:
Male Sprague-Dawley rats [1] = assay: Respiratory effects: minute ventilation (VE) under 5% CO2 challenge, whole body plethysmography; assay type: in vivo, rat; details: for minimum VE compared with saline group: intrathecal
Method: The effects of each drug on minute ventilation (VE) under 5% CO2 challenge were evaluated using whole body plethysmography (Tatsumi et al., 1991). An unrestrained rat was placed in a 3-liter whole-body plethysmograph chamber. After a 15-min acclimation period, a gas mixture of 5% CO2 and 21% O2 in N2 (100% humidified) was supplied into and out of the chamber at a rate of 1000 ml/min, and the animal was allowed to breathe the gas mixture for 5 minutes. After a steady-state ventilatory condition had been reached, with the animal awake and quiet, the inlet and outlet of the chamber were closed and the pressure changes in the box (due to the warming and wetting of the gas inspired by the rat and the cooling and drying of the expired gas) were recorded using a high-gain differential pressure transducer. A calibration volume of 0.2 ml of air was regularly introduced into the chamber during the recordings. The recordings were made for 20 to 30 seconds. Tidal volumes were calculated from the pressure changes using the equation derived by Drorbaugh and Fenn (1955). Respiratory frequencies were determined from the number of respiratory cycles in the recordings and VE values were calculated (tidal volume×frequency).
Rats were randomly assigned to one of 7 groups. The number of rats in each group was 6 to 10. The animals of each group were given 3 times (lower dose) or 30 times (higher dose) the ED50 value (antinociceptive) of MOR, DALDA or [Dmt^1]DALDA, or saline by direct percutaneous intrathecal injection. VE under 5% CO2 challenge was determined prior to and every hour up to 10 hours after the administration of the drug. VE values were expressed as a percentage of the baseline VE value obtained prior to the administration of any drug. The smallest VE value obtained after the administration of a drug (minimum V E) was determined for each animal. Mean values of the minimum V E for animals of each group were compared using the one-way analysis of variance followed by the Dunnett's test. For each animal, respiratory depression was defined as a minimum VE value that is below two standard deviations of the mean (mean−2×SD) of the saline group.
A minimum VE value (see Materials and Methods) less than the mean−(2×S.D.) of the minimum VE value of the saline group was considered a “low minimum VE”.

Male Sprague-Dawley rats [2] = assay: Rat tail-flick test, antinociceptive effects after intrathecal administration; assay type: in vivo; details: for time for which tail-flick latencies were significantly greater than baseline: 3 times ED50, direct percutaneous intrathecal injection, n=8; for Response Latencies: 3 times ED50 intrathecal, at peak analgesia; for EDT50: cumulative dose-response, quantal tail-flick test, n=10; for Baseline Latencies: tail-flick latency prior to the administration of any drug, n=4; for Potency Ratios: antinociceptive potency relative to intrathecal morphine (=1)
Method: Male Sprague-Dawley rats (300-350 g) were used.
Under light halothane anesthesia a needle connected to a Hamilton syringe was inserted percutaneously between spinal processes of the third and fourth lumbar vertebrae into the intrathecal space. A quick flick of the tail was observed when the tip of the needle entered the intrathecal space and was used as an indicator of successful puncture (Mestre et al., 1994). Drugs were delivered in a volume of 5 μl.
Intrathecal catheterization was performed at least two days prior to the experiment as previously described (Shimoyama et al., 1996). Briefly, under halothane anesthesia, a PE-10 tube was inserted through a small hole made in the atlanto-occipital membrane and threaded 8.5 cm down the intrathecal space to the lumbosacral level of the spinal cord. Drugs were delivered via the catheter in a volume of 5 μl, followed by 10 μl saline to flush the catheter.
To assess the antinociceptive effects of the opioids, the tail-flick test was used. Radiant heat was applied to the tail at 5-8 cm from the tip using a tail-flick apparatus (IITC, Woodland Hills, Calif.). The time from the onset of the heat to the withdrawal of the tail (tail-flick latency) was measured. The intensity of the radiant heat was adjusted so that baseline latencies would fall between 2.5 and 3.5 seconds. To avoid tissue damage the heat stimulus was discontinued after seven seconds. A baseline latency was obtained for each animal prior to the administration of any drug. Subsequent response latencies were determined at designated time points. Analgesic testing was performed by a blinded investigator.
Cumulative dose-response studies were performed for each drug using the tail-flick test (Shimoyama et al., 1996), (Shimoyama et al., 1997). Each drug was tested in a group of ten rats. After measuring the baseline latencies, increasing doses of each drug were administered via an intrathecal catheter until each animal in the group became an analgesic responder. An analgesic responder was defined as one whose response tail-flick latency was two or more times the value of the baseline latency. The response latency after each dosing was determined at peak analgesia, which was 15, 30 and 45 min after the administration of the MOR, DALDA and [Dmt^1]DALDA, respectively (based on preliminary studies). Any subsequent dosing was performed immediately after the determination of response latency. The percentage of analgesic responders in the group of rats for each cumulative dose was calculated, and a cumulative dose-response curve was constructed. The dose-response data were analyzed by the BLISS-21 computer program. This program maximized the log-likelihood function to fit a parallel set of gaussian normal sigmoid curves to the dose-response data and provides ED50 values, 95% confidence interval (CI) and relative potency estimates (Umans and Inturrisi, 1981).
The effect of naloxone on the antinociceptive effects of intrathecal MOR, DALDA and [Dmt^1]DALDA was examined. An equipotent dose (3 times the ED50 value determined in Study 1) of MOR, DALDA or [Dmt^1]DALDA was given via an intrathecal catheter. Tail-flick latencies were measured prior to the administration of any drug and at the time of peak analgesia for each compound (at 15, 30 and 45 minutes after administration, for MOR, DALDA and [Dmt^1]DALDA, respectively). Naloxone hydrochloride at a dose of 82.5 nmol or saline was administered via the intrathecal catheter 10 minutes prior to the second tail-flick testing. Four rats were tested for each combination of drugs. Data were analyzed using the paired t-test.
A dose 3 times the ED50 value of MOR, DALDA, or [Dmt^1]DALDA was administered intrathecally. Tail-flick latencies were measured prior to the administration of any drug (=baseline latency) and at the time of peak analgesia (=response latency). […]

Male Sprague-Dawley rats [3] = assay: Behavioral effects after intrathecal administration; assay type: in vivo, rat; details: for rigidity of the caudal part of the body: higher dose (30 times ED50)
Description: However, they retained their righting reflex.

[4] = test system: [^3H]NE uptake in spinal cord synaptosomes; assay: Inhibition of [3H]NE uptake in spinal cord synaptosomes; assay type: biochemical, guinea pig; details: for IC50: spinal cord synaptosomes, 95% confidence interval in brackets
Method: Adult female Hartley strain guinea pigs (440-550 g) were decapitated and the spinal cords taken out. A crude synaptosomal (P2) fraction was prepared as described previously (Lonart and Johnson 1995; Li 2000). Briefly, the tissue was minced and homogenized in 10 ml of ice-cold 0.32 M sucrose solution (pH7.4) with a Thomas B075 homogenizor, clearance 0.13-0.18 mm. The homogenate was centrifuged for 10 min at 1,200×g in a Megafuge centrifuge at 4° C. The resulting supernatant was then centrifuged at 20,000×g for 20 min in JA-17 rotor of a Beckman J2-21 centrifuge at 4° C. and the supernatant discarded. The pellet (P2) was gently resuspended in aerated (100% O2) ice-cold buffer containing (in mM):HEPES 20, NaCl 140, KCl 5, NaHCO3 5, MgCl2 1, Na2HPO4 1.2, CaCl2 1.2 and glucose 10, pH 7.4, and centrifuge at 3,000×g for 12 min in a Megafuge at 4° C. Pour out the supernatant. Gently resuspend synaptosome in 10 ml buffer with the aid of a Dounce homogenizor just before using. Protein concentration was determined by the method of Bradford (1976) at 595 nm using bovine serum albumin as a standard in a Spectra Max plus machine (Molecular Device Co. Sunnyvale, Calif.)
Add buffer 0.6 ml in tubes, synaptosome solution 0.2 ml (about 100 μg), then varying concentration of drug 0.1 ml (each concentration performed in triplicate), put in water bath for pre-incubation for 10 min at 37° C. The uptake was initiated by the addition of [^3H]NE (100 nM) or [^3H]5-HT (50 nM) 0.1 ml, continued to incubate for 6 min and terminated by a rapid cooling of sample tubes in ice-cold water for 3 min. The synaptosome were then collected using a Harvest machine with GF/B filter, washed for 3 times with ice-cold 150 mM Tris HCl buffer (pH7.4) 2 ml. After drying, put filter in scintillation liquid vials then add scintillation liquid 6 ml. Filter-bound radioactivity was counted by liquid scintillation counter (Beckman LS6001). The difference in [^3H]NE or [^3H]5-HT accumulation at 37° C. and 0° C. was taken as a measure of active uptake. […]

[5] = high dose (30 times antinociceptive ED50)
[6] = higher dose, 30 times ED50 (Morphine 100 nmol of 10 rats, DALDA 7 nmol of 8, [Dmt1]DALDA 34 pmol of 7)
[7] = lower dose, 3 times ED50 (Morphine 10 nmol, DALDA 0.7 nmol, [Dmt1]DALDA 3.4 pmol), 6 rats per group
[8] = naloxone hydrochloride 82.5 nmol intrathecal 10 min prior to measurement
[9] = low dose (3 times antinociceptive ED50)

Compound | minimum VE compared with saline group (Male Sprague-Dawley rats [1]; [5]) | Time of Occurrence of Low Minimum VE (Male Sprague-Dawley rats [1]; higher dose, 30 times ED50) | No. of Rats with Low Minimum VE (Male Sprague-Dawley rats [1]; [6]) | Time of Occurrence of Low Minimum VE (Male Sprague-Dawley rats [1]; lower dose, 3 times ED50) | No. of Rats with Low Minimum VE (Male Sprague-Dawley rats [1]; [7]) | time for which tail-flick latencies were significantly greater than baseline (Male Sprague-Dawley rats [2]) | Response Latencies (Male Sprague-Dawley rats [2]; [8]) | EDT50 (Male Sprague-Dawley rats [2]; intrathecal) | Baseline Latencies (Male Sprague-Dawley rats [2]) | rigidity of the caudal part of the body (Male Sprague-Dawley rats [3]) | minimum VE compared with saline group (Male Sprague-Dawley rats [1]; [9]) | Potency Ratios (Male Sprague-Dawley rats [2]) | IC50 [4] | further results
CN1CC[C@]23c4c5ccc(O)c4O[C@H]2[C@@H](O)C=C[C@H]3[C@H]1C5 [Morphine, morphine, reference compound] | significantly lower | 3-5 h after administration | 4 | 4 h after administration | 1 | 3 h | not different from baseline values | 3330 pmol | 2.78 ± 0.50 s | Rigidity of the caudal part of the body was observed in each animal | – | – | – | No. of Rats with Low Minimum VE (Male Sprague-Dawley rats [1]; lower dose, 3 times ED50 (Morphine 10 nmol, DALDA 0.7 nmol, [Dmt1]DALDA 3.4 pmol), 6 rats per group, listed as MOR): one; Response Latencies (Male Sprague-Dawley rats [2]; saline 10 min prior to measurement, cut-off 7 s, listed as MOR + saline): ≥ 7 (cut-off latency)* s
Cc1cc(O)cc(C)c1C[C@H](N)C(=O)N[C@H](CCCNC(=N)N)C(=O)N[C@@H](Cc1ccccc1)C(=O)N[C@@H](CCCCN)C(N)=O [[Dmt^1]DALDA, 2′,6′-dimethyl-Tyr-D-Arg-Phe-Lys-NH2] | not different | 3 h after administration | – | – | – | 13 h | not different from baseline values | 1.06 pmol | 2.83 ± 0.17 s | Rigidity of the caudal part of the body was observed in each animal | not different | 3000 and 3160 | 4.1 µM | Response Latencies (Male Sprague-Dawley rats [2]; saline 10 min prior to measurement, cut-off 7 s, listed as [Dmt^1]DALDA + saline): ≥ 7 (cut-off latency)* s; potency relative to DALDA in the rat tail flick test (Male Sprague-Dawley rats [2]; after intrathecal administration): 200 fold; effect of added yohimbine (100 μg) on the antinociceptive effect (Male Sprague-Dawley rats [2]; intrathecal, [Dmt1]DALDA 1.1 pmol or DALDA 240 pmol with yohimbine): significantly attenuated; inhibition of [3H]NE uptake ([4]; at a dose of 10^−4): 80.6±1.5%
NCCCC[C@H](NC(=O)[C@H](Cc1ccccc1)NC(=O)[C@@H](CCCN=C(N)N)NC(=O)[C@@H](N)Cc1ccc(O)cc1)C(N)=O [DALDA, H-Tyr-D-Arg-Phe-Lys-NH2] | significantly lower minimum VE | 3-5 h after administration | 4 | 3-5 h after administration | 4 | 7 h | not different from baseline values | 237 pmol | 2.63 ± 0.15 s | Rigidity of the caudal part of the body was observed in each animal | significantly lower minimum VE | 14 and 14.1 | 54 µM | minimum VE (Male Sprague-Dawley rats [1]; four rats of the higher dose DALDA group): less than 60 % of baseline; Response Latencies (Male Sprague-Dawley rats [2]; saline 10 min prior to measurement, cut-off 7 s, listed as DALDA + saline): ≥ 7 (cut-off latency)* s; sedative effects (Male Sprague-Dawley rats [3]; higher dose, coincided with respiratory depression): showed sedative effects
